PMC6934184, “Selective DNA-PKcs inhibition extends the therapeutic index of localized radiotherapy and chemotherapy” (The Journal of Clinical Investigation, 2019)

Target: T1, AURKA (Aurora A) (Homo sapiens, UniProt O14965)
T1 construct: purchased Thermo Fisher Scientific (Life Technologies) SelectScreen
Assay: SelectScreen Z'LYTE
Format: biochemical
Outline: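 Compound tested in SelectScreen activity assays, Z'LYTE for CSF1R, CDK1/cyclin B and MAP2K6 and Adapta for CAMK1. ATP for CAMK1 was listed as 10, and Km app was used for CSF1R. Results are expressed in percent.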

T1 sequence (O14965 whole entry): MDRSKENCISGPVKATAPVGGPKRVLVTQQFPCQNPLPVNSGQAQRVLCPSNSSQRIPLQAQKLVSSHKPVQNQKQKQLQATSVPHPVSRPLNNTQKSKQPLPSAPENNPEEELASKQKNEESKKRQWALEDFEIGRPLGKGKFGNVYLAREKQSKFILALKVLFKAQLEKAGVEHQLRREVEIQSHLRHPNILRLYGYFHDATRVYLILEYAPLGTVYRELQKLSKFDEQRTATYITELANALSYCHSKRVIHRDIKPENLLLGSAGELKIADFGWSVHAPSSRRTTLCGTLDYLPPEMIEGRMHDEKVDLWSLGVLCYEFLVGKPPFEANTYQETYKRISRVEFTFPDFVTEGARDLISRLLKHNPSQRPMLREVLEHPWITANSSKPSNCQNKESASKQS

In the case of CN(C(=O)CN1CCOCC1)c1ccc2sc3c(-c4cccc5c(=O)cc(N6CC7CCC(C6)O7)oc45)cccc3c2c1 [NU5455], the inhibition at 1 µM was -0.1%.
